# From patent publication US7074801B1, “Nitrogen-containing condensed cyclic compound having a pyrazolyl group as a substituent group and pharmaceutical composition thereof” (Eisai Co., Ltd., priority 2001, dated 2006)
# Structures can show the parent of a compound that is named as a salt.
# Test system: STAT6
# Test: Inhibitory test on STAT6 activation: IL-4-induced alkali phosphatase STAT6 reporter in 293 cells stably expressing the STAT6 gene and STAT6 reporter gene
# Type: cell-based
# Conditions: HEK293; Table 1; 1 ng/ml human recombinant IL-4, 16 hours, 293 cells with STAT6 reporter; read-out: Inhibitory activity IC50 (concentration at which the alkali phosphatase activity induced by IL-4 was inhibited by 50%)
# Method: The inhibitory action of the present compound on activation of STAT6 was evaluated according to the following experiments.
# 1) Construction of a STAT6 Reporter Gene
# An oligonucleotide of SEQ ID NO:1 in which three STAT6-binding regions on a human immunoglobulin germline E gene promoter had been linked was mixed with its complementary chain, thermally denatured and annealed, and 5′- and 3′-ends thereof were cleaved with restriction enzymes Kpn I (Code No. 1068A, Takara Shuzo) and Xba I (Code No. 1093A, Takara Shuzo) respectively, and the resulting fragment was cloned into a Kpn I/Xba I site of pUG-BGH-PLAP vector (described in Molecular Pharmacology, 49:860–873, 1996). To induce a basic transcriptional factor, a TK promoter region of herpes virus was cloned into an Xba I/Hind III (Code No. 1060A, Takara Shuzo) site of the pUG-BGH-PLAP vector. To obtain a stably expressing cell strain, a neomycin resistance gene (PGK-neo expression cassette) was integrated with an Sal I (Code No. 1080A, Takara Shuzo) of this vector. Cloning of the TK promoter and PGK-neo expression cassette was carried out according to Molecular Pharmacology, 49:860–873, 1996.
# The underlined sites are a Kpn I recognition site and Xba I recognition site respectively. 2) Construction of an STAT6 Expression Vector
# An oligonucleotide of SEQ ID NO:2 containing an initiation codon of STAT6 gene and an oligonucleotide of SEQ ID NO:3 containing a stop codon were used, and total RNA was prepared from human peripheral blood cells by using RNeasy Mini kit (Code No. 74104, OIAGEN). Then, cDNA was prepared by reverse transcription reaction using Takara RNA LA PCR kit (Code No. RR012A, Takara Shuzo) and then subjected to PCR reaction with primers of SEQ ID NOS:2 and 3, to amplify the STAT6 gene. • (SEQ ID NO:2) 5′-[…]-3′ The underlined site is an EcoR I recognition site. • (SEQ ID NO:3) 5′-[…]-3′ The underlined site is an Xho I recognition site.
# The PCR product was digested with EcoR I (Code No. 1040A, Takara Shuzo) and Xho I (1094A, Takara Shuzo), and the digested fragment was isolated on an agarose gel. The isolated fragment was integrated into a vector fragment obtained by digesting pcDNA3.1 (+) (Code No. U790-20, Invitrogen) vector with EcoRI/Xho I.
# 3) Introduction of the Gene and Preparation of a Stably Expressing Cell Strain
# Human fetal kidney-derived 293 cells (American Type Culture Collection), 3.0×10^5 cells, were spread on a Falcon tissue culture 6-well plate (Code No. 35-3046, Becton Dickinson) and cultured overnight. 1.5 μg of the prepared STAT6 reporter gene, 1.5 μg of the STAT6 gene and 20 μl of lipofectamine (Code No. 18324-012, GIBCO BRL) were mixed in 0.3 ml OPTI-MEM medium (Code No. 31985-070) and left at room temperature for 20 minutes. Thereafter, 1.2 ml OPTI-MEM medium was further added to the cells washed with OPTI-MEM medium not containing fetal bovine serum, and the cells were cultured for 2 hours. 1.5 ml medium containing fetal bovine serum was added thereto, and the cells were cultured for additional 19 hours. The medium was exchanged with a fresh one, and Geneticin (Code No. G-5013, SIGMA) was added at a concentration of 1 mg/ml, and the cells were cultured, and chemical-resistant cells were selected. The resulting chemical-resistant cells were floated in a medium containing 1 mg/ml Geneticin, then spread at a density of 0.5 cell/well on a 96-well microplate (Code No. 35-3072, Becton Dickinson) and cloned to give a clone expressing alkali phosphatase in response to IL-4.
# 4) Inhibitory Test on STAT6 Activation
# The cells stably expressing the STAT6 gene and STAT6 reporter gene and expressing alkali phosphatase in response to IL-4 were spread at a density of 5000 cells/180 μl/well on a 96-well microplate (Code No. 35-3072, Becton Dickinson) and cultured overnight. […]
row,Compound,IC50 [nM]
1,"CC(C)NC(=O)Nc1ccc(-c2cnc3ccc(-c4cn[nH]c4)cn23)cc1F [Example 699, N-12-Fluoro-4-[6-(1H-4-pyrazolyl)imidazo[1,2-a]pyridin-3-yl] phenyl}-N′-isopropylurea hydrochloride]",10 to 100
2,"C=Cc1ccc(NC(=O)c2ccc(-c3cnc4ccc(-c5cn[nH]c5)cn34)cc2F)nc1 [Example 689, N1-(5-Vinyl-2-pyridyl)-2-fluoro-4-[6-(1H-4-pyrazolyl)-imidazo[1,2-a]pyridin-3-yl]benzamide dihydrochloride]",< 10
3,"CN(C)Cc1nc(-c2cnc3ccc(-c4c[nH]nc4-c4ccccc4F)cn23)no1 [Example 598, (3-{6-[3-(2-Fluorophenyl)-1H-4-pyrazolyl]-imidazo[1,2-a]-pyridin-3-yl}-[1,2,4]oxadiazol-5-ylmethyl)dimethylamine tri-trifluoroacetate]",< 10
4,"Cc1cc(NC(=O)c2ccc(-c3cnc4ccc(-c5cn[nH]c5)cn34)cc2F)on1 [Example 688, N1-(3-Methylisoxazol-5-yl)-2-fluoro-4-[6-(1H-4-pyrazolyl)-imidazo[1,2-a]pyridin-3-yl]benzamide dihydrochloride]",< 10
5,"O=C(Nc1nc2ccc(F)cc2s1)c1ccc(-c2cnc3ccc(-c4cn[nH]c4)cn23)cc1F [Example 669, N1-(6-Fluoro-1,3-benzothiazol-2-yl)-2-fluoro-4-[6-(1H-4-pyrazolyl)imidazo[1,2-a]pyridin-3-yl]benzamide dihydrochloride]",< 10
6,"CCc1ccc(C(=O)C(C)(C)NC(=O)c2ccc(-c3cnc4ccc(-c5cn[nH]c5)cn34)cc2F)cc1 [Example 676, N1-[2-(4-Ethylphenyl)-1,1-dimethyl-2-oxyethyl]-2-fluoro-4-[6-(1H-4-pyrazolyl)imidazo[1,2-a]pyridin-3-yl]benzamide hydrochloride]",10 to 100

# The remaining lines, values ahead:
row,IC50 [nM],Compound
1,10 to 100,"Fc1ccc(-c2n[nH]cc2-c2ccc3ncc(-c4ccc(Cl)s4)n3c2)cc1 [Example 70, 3-(5-Chloro-2-thienyl)-6-[3-(4-fluorophenyl)-1H-4-pyrazolyl]imidazo[1,2-a]pyridine dihydrochloride]"
2,< 10,"CS(=O)(=O)c1cnc(-c2cnc3ccc(-c4c[nH]nc4-c4c(F)cccc4F)cn23)s1 [Example 549, 6-[3-(2,6-Difluorophenyl)-1H-pyrazol-4-yl]-3-(5-methylsulfonylthiazol-2-yl)imidazo[1,2-a]pyridine]"
3,10 to 100,"CS(=O)(=O)c1ccc(-c2n[nH]cc2-c2ccc3ncc(-c4ccc(F)cc4)n3c2)cc1 [Example 101, 3-(4-Fluorophenyl)-6-{3-[4-(methylsulfonyl)phenyl]-1H-4-pyrazolyl}imidazo[1,2-a]pyridine dihydrochloride]"
4,100 to 1000,"COc1ccc(-c2n[nH]cc2-c2ccc3ncnc(-c4ccc(S(C)(=O)=O)s4)c3c2)cc1OC [Example 261, 6-[3-(3,4-Dimethoxyphenyl)-1H-4-pyrazolyl]-4-[5-(methylsulfonyl)-2-thienyl]quinazoline dihydrochloride]"

# Same assay, conditions: HEK293; Table 2; 1 ng/ml human recombinant IL-4, 16 hours, 293 cells with STAT6 reporter; read-out: Inhibitory activity IC50 (concentration at which the alkali phosphatase activity induced by IL-4 was inhibited by 50%)
row,Compound,IC50 [nM]
1,"O=C(NC1=NCCS1)c1ccc(-c2cnc3ccc(-c4cn[nH]c4)cn23)cc1F [Example 712, N1-(4,5-Dihydro-1,3-thiazol-2-yl)-2-fluoro-4-[6-(1H-4-pyrazolyl)imidazo[1,2-a]pyridin-3-yl]benzamide dihydrochloride]",< 10
2,"Cc1ccnc(NC(=O)c2ccc(-n3cnc4ccc(-c5cn[nH]c5)cc43)cc2F)c1 [Example 728, N1-(4-Methyl-2-pyridyl)-2-fluoro-4-[6-(1H-4-pyrazolyl)-1H-benzo[d]imidazol-1-yl]benzamide trihydrochloride]",< 10
3,"CC(NC(=O)c1ccc(-c2cnc3ccc(-c4cn[nH]c4)cn23)cc1F)c1ccccn1 (stereo not drawn) [Example 707, N1-[1-(2-Pyridyl)ethyl]-2-fluoro-4-[6-(1H-4-pyrazolyl)-imidazo[1,2-a]pyridin-3-yl]benzamide dihydrochloride]",10 to 100
4,"Cc1cc(-c2ccnc3ccc(-c4c[nH]nc4C(F)(F)F)cc23)on1 [Example 1070, 4-(3-Methylisoxazol-5-yl)-6-(3-trifluoromethyl-1H-pyrazol-4-yl) quinoline]",10 to 100

# More lines, now with the values ahead:
row,IC50 [nM],Compound
1,< 10,"CN(C)CCN(C)S(=O)(=O)c1ccc(-c2ncnc3ccc(-c4c[nH]nc4-c4ccc(F)cc4)cc23)s1 [Example 855, 5-{6-[3-(4-Fluorophenyl)-1H-pyrazol-4-yl]quinazolin-4-yl}-thiophen-2-sulfonic acid (2-dimethylaminoethyl)methylamide trihydrochloride]"
2,10 to 100,"O=S(=O)(CCO)c1cccc(N2CCN(c3ncnc4ccc(-c5cn[nH]c5)cc34)CC2)c1 [Example 951, 2-(3-{4-[6-(1H-Pyrazol-4-yl)quinazolin-4-yl]piperazin-1-yl}benzenesulfonyl)ethanol tri-trifluoroacetate]"
3,10 to 100,"O=C(Nc1ccc(F)cc1F)c1ccc(-c2ncnc3ccc(-c4cn[nH]c4)cc23)s1 [Example 869, 5-[6-(1H-Pyrazol-4-yl)quinazolin-4-yl]thiophen-2-carboxylic acid (2,4-difluorophenyl)amide dihydrochloride]"
4,< 10,"CS(=O)(=O)c1ccc(N2CCN(c3ncnc4ccc(-c5cn[nH]c5)cc34)CC2)s1 [Example 923, 4-[4-(5-Methylsulfonylthiophen-2-yl)piperazin-1-yl]-6-(1H-pyrazol-4-yl)quinazoline trihydrochloride]"
5,100 to 1000,"Cc1ccc(S(=O)(=O)N2CCN(c3ncnc4ccc(-c5cn[nH]c5)cc34)CC2)cc1 [Example 971, 4-[4-(Toluene-4-sulfonyl)piperazin-1-yl]-6-(1H-pyrazol-4-yl)quinazoline di-trifluoroacetate]"
6,10 to 100,"CS(=O)(=O)c1ccc(-c2ncnc3ccc(-c4c[nH]nc4-c4ccc(N5CCOCC5)cc4)cc23)s1 [Example 887, 4-(5-Methylsulfonylthiophen-2-yl)-6-[3-(4-morpholin-4-ylphenyl)-1H-pyrazol-4-yl] quinazoline]"
7,10 to 100,"NS(=O)(=O)c1ccc(NC(=O)c2ccc(-c3cnc4ccc(-c5cn[nH]c5)cn34)cc2F)cc1 [Example 700, N1-[4-(Aminosulfonyl)phenyl]-2-fluoro-4-[6-(1H-4-pyrazolyl)imidazo[1,2-a]pyridin-3-yl]benzamide hydrochloride]"
8,10 to 100,"CS(=O)(=O)c1ccccc1NC(=O)c1ccc(-c2cnc3ccc(-c4cn[nH]c4)cn23)cc1F [Example 701, N1-[2-(Methylsulfonyl)phenyl]-2-fluoro-4-[6-(1H-4-pyrazolyl)imidazo[1,2-a]pyridin-3-yl]benzamide hydrochloride]"
9,10 to 100,"Fc1ccc(-c2n[nH]cc2-c2ccc3ncnc(-c4nnc(C5CC5)o4)c3c2)c(F)c1 [Example 907, 4-(5-Cyclopropyl[1,3,4]oxadiazol-2-yl)-6-[3-(2,4-difluorophenyl)-1H-pyrazol-4-yl] quinazoline]"
10,< 10,"CS(=O)(=O)c1cccc(N2CCN(c3ncnc4ccc(-c5c[nH]nc5-c5ccc6c(c5)OCO6)cc34)CC2)c1 [Example 964, 6-(3-Benzo[1,3]dioxol-5-yl-1H-pyrazol-4-yl)-4-[4-(3-methylsulfonylphenyl)piperazin-1-yl]quinazoline tri-trifluoroacetate]"
